Patent US20230054976A1, “METHODS FOR INHIBITION OF ALPHA-SYNUCLEIN mRNA USING SMALL MOLECULES” (The Scripps Research Institute, priority 2019, published 2023)

How the values were obtained:
[1] = test system: A-bulge-mutated RNA (fully paired RNA); assay: Thermal melting experiment, fully paired RNA; assay type: binding
Excerpt: Thermal melting experiment.

[2] = target: RNA-7 (A bulge mutated to U or G bulge); assay: Competitive binding assay (2-AP), RNA-7
Method: EC50 was calculated from Eq. (1).

[3] = test system: RNA-12 (fully base paired RNA); assay: Competitive binding assay (2-AP), RNA-12
Method: I and I0 are the observed fluorescence intensity in the presence and absence of 2-AP RNA. Δε is the difference between the fluorescence intensity in the absence and presence of infinite 2-AP RNA. […] EC50 was calculated from Eq. (1). […] The change of fluorescence intensity was fit to Eq. (2):
θ is the percentage of 2-AP RNA bound. [RNA] is the concentration of 2-AP RNA. EC50 is the EC50 of Synucleozid determined in the assay above. [Synucleozid] is the concentration of Synucleozid. Cc is the concentration of competitive RNA. Kd is competitive dissociation constant and A is a constant.

[4] = test system: 5′ UTR of SNCA mRNA; assay: In vitro translation assay (rabbit reticulocyte lysate), SNCA-5′-UTR-Luc mRNA; assay type: biochemical, human
Method: Luciferase assay. The effect of Synucleozid treatment on translation from various IRE containing transcripts was determined using luciferase reporter assay. SH-SY5Y cells stably expressing 5' UTR were treated with Synucleozid for 48 h, washed with PBS and lysed with Passive Lysis Buffer for 15 min at room temperature. Luciferase reporter activity in each lysate was monitored using the dual luciferase reporter assay system kit (Promega. Madison, Wis., USA) according to the manufacturer's instructions. Luminescence from firefly luciferase reaction was measured using a microplate luminometer (Wallac 1420, Perkin Elmer) at 485 nm excitation and 535 nm emission wavelengths. Firefly luciferase reaction was then quenched by adding Stop & Glo reagent, and the internal fluorescence from GFP measured at the same setting was used to normalize luciferase expression. Luciferase reporter activity was expressed as percent change compared to the respective vehicle-treated control cells. In vitro translation assay. The mRNA template for in vitro translational assays was transcribed from the pIRES-Luc-EGFP-puro and pCDH-α-syn-5'-UTR-Luc-EGFP-puro plasmids by using an in vitro transcription system (RiboMax, Promega) with forward primer: [NT] and reverse primer: [NT]. […] Translation proceeded at 30° C. for 90 min, and then luminescence was measured with a Biomek FLx800 plate reader (1.0 s integration time).

[5] = test system: SNCA mRNA; assay: RT-qPCR of SNCA mRNA levels in SH-SY5Y cells; assay type: cell-based, human
[6] = test system: SNCA mRNA; assay: Polysome profiling; assay type: cell-based, human; details: 1 μM, 48 h
Method: Polysome profiling. Polysome profiling studies were completed similarly to previously described methods (9, 10). SH-SY5Y cells were treated with DMSO vehicle or Synucleozid (1 μM) at 50% confluency. After 48 h, 100 μg/mL (final concentration) cycloheximide (CHX) was added to dishes, and cells were incubated at 37° C. for 10 min. After two times washing with ice-cold 1×DPBS supplemented with 100 μg/mL CHX, cells were scraped with ice-cold 300 μL 1×DPBS supplemented with 100 μg/mL CHX. Three 100 mm dishes of cells were prepared and combined as one profiling sample. After centrifugation, cell pellets were lysed with 250 μL of ice-cold polysome extraction buffer [10 mM NaCl, 10 mM MgCl2, 10 mM Tris, pH 7.5, 1% Triton X-100, 1% sodium deoxycholate, 1 mM DTT supplemented with […] and 0.2 U/μL RNasin (Promega)]. The lysate was transferred to an ice-cold Eppendorf tube, gently vortexed and centrifuged for 15 min at 13,200 rpm, 4° C. The supernatant was layered onto 10 mL linear 10-50% sucrose gradients containing 20 mM HEPES (pH 7.4), 5 mM MgCl2, 100 mM KCl, […], and 100 µg/mL CHX. The sucrose gradients were centrifuged at 40,000 rpm for 2 h at 4° C. then fractionated using a fraction collector (Brandel Inc.). The absorbance of cytosolic RNA was recorded at 254 nm by an inline UV monitor. A 400 μL aliquot from each fraction was collected. Then, RNA extraction, cDNA synthesis and RT-qPCR were performed as described above.

[7] = test system: 32P-labeled SNCA IRE hairpin RNA; assay: RNase H-mediated ASO-Bind-Map; assay type: binding, human
Method: RNase H-mediated ASO-Bind-Map. SNCA IRE hairpin RNA was 5′-end labeled with [γ-^32P]ATP and T4 kinase as previously described^5. Approximately, 5 pmoles of ^32P labeled IRE RNA per reaction was folded in 1× RNase H buffer (New England Biolabs) by heating to 65° C. for 5 min and slowly cooling to room temperature. Serially diluted concentrations of Synucleozid were added to the RNA solutions and incubated at room temperature for 30 min. One of ASOs was then added to a final concentration of 500 nM, followed by incubation at room temperature for 30 min. Next, 0.05 U/μL RNase H (New England Biolabs) was added into each RNA-ligand mixture, and the samples were incubated for 20 min. Reactions were quenched by incubating at 65° C. for 20 min. T
Two ladders were generated to identify the positions of RNase H cleavage. Each guanosine (G) residue was identified by using RNase T1 under denaturing conditions as described above. Likewise, a hydrolysis ladder was generated as described above. Reactions were stopped by addition of an equal volume of 2× Loading Buffer. Fragments were separated on a denaturing 15% polyacrylamide gel and imaged using a BioRad PMI phosphorimager. Images were quantified with BioRad's QuantityOne software.

Structure (SMILES): N=C(N)c1ccc(Nc2ccc(-c3cc4ccc(C(=N)N)cc4[nH]3)cc2)cc1 [Synucleozid A]
- effect on thermal stability of A-bulge-mutated RNA [1]: no significant effect
- Kd [2]: ~20 µM
- reduction of avidity compared to the native IRE [2]: 10 fold
- competitor RNA concentration needed for recovery of 2-AP emission [3]: > 100 µM
- inhibition of luciferase expression in vitro, SNCA-5′-UTR-Luc [4]: inhibited luciferase expression in a concentration-dependent manner
- effect on steady-state levels of SNCA mRNA [5]: no effect
- association of ribosomes with a control RNA [6]: does not affect
- decrease of SNCA mRNA associated with active polysomes ([6]; SH-SY5Y cells): ~20%
- SNCA mRNA associated with incomplete ribosomes ([6]; fractions 1-5): increase
- protection from RNase H cleavage, ASOs hybridized with sites other than A bulge ([7]; 1 μM): no protection from cleavage
- protection of the IRE from RNase H cleavage ([7]; 0.1, 1, and 10 μM, ASO (1-10) and ASO (40-50) overlap with the A bulge): only observed with ASOs whose binding sites overlap with the A bulge
